From patent publication US20240043531A1, “ANTI-CD47 MONOCLONAL ANTIBODY AND USE THEREOF” (Akeso Biopharma, Inc., priority 2021, published 2024)
Each block holds one molecule with its values, some of them ahead of it.

Tests used:
[1] = tested on: Burkitt's lymphoma Raji cells; experiment: ADCP: phagocytosis of Raji cells by HPMMs, combination with rituximab; format: cell-based, human; settings: HPMMs effector, Raji target cells, 37° C. 2 h, flow cytometry; FIG. 1
From the text: (§1) Materials: Azacitidine (purchased from Baxter Oncology GmbH); Hu5F9-G4 (supplied by Akeso Biopharma, Inc.); Raji cells (Chinese Academy of Sciences Shanghai Branch); HL-60 cells (ATCC); RPMI 1640 (Gibco, Cat. No: 22400-105); pancreatin (0.25% Typsin-EDTA (1×)) (Gibco, Cat. No: 25200072); fetal bovine serum (FBS; Excell bio, Cat. No: FSP500); fluorescent dye […] diacetatesuccinimidyl ester (CFSE; Biolegend, Cat. No: 423801); recombinant human macrophage colony-stimulating factor (human M-CSF; PeproTech, Cat. No: 300-25); APC anti-human CD11c antibody (Biolegend, Cat. No: 301614); isotype control (human IgG4; supplied by Akeso Biopharma, Inc.); rituximab (Roche); BSA (Sigma, Cat. No: V900933-1KG); Ficoll paque plus (GE, Cat. No: 17-1440-02). Human peripheral monocyte-derived macrophages (HPMMs) were prepared by inducing PBMCs. Frozen PBMCs were conventionally thawed and incubated in an incubator overnight. The next day, PBMCs were collected, centrifuged at 170×g for 5 min, resuspended in a 1640 medium containing 2% FBS, and incubated in an incubator for 2 h. […]
Procedures: Raji cells in the logarithmic phase were conventionally collected, centrifuged at 170×g for 5 min, resuspended and then washed once with PBS. […] 200 μL of 1% PBSA was added to each tube for resuspension, and the cells were detected on an FACS Calibur flow cytometer. […]

[2] = tested on: human ovarian cancer SK-OV-3 cells; experiment: Immune cell activation: PBMCs with Raji-PDL1 and SK-OV-3 cells, cytokine ELISA; format: cell-based; settings: SEB-activated PBMCs + Raji-PDL1 + SK-OV-3 cells, 3 days; FIG. 5
[3] = tested on: human lung adenocarcinoma A549 cells; experiment: Immune cell activation: PBMCs with Raji-PDL1 and A549 cells, cytokine ELISA; format: cell-based; settings: SEB-activated PBMCs + Raji-PDL1 + A549 cells, 3 days; FIG. 4
[4] = tested on: human prostate cancer LNCAP cells; experiment: Immune cell activation: PBMCs with Raji-PDL1 and LNCAP cells, cytokine ELISA; format: cell-based; settings: SEB-activated PBMCs + Raji-PDL1 + LNCAP cells, 3 days; FIG. 6
[5] = tested on: acute myelocytic leukemia (AML) HL-60 cells; experiment: ADCP: phagocytosis of HL-60 cells by HPMMs, combination with azacitidine; format: cell-based, human; settings: HPMMs effector, HL-60 target cells treated with azacitidine 3 μM or 1 μM for 24 h; antibodies 10 μg/mL and 1 μg/mL; FIG. 2
From the text: as §1, with “overnight.” for “overnight. The next day, PBMCs were collected, centrifuged at 170×g for 5 min, resuspended in a 1640 medium containing 2% FBS, and incubated in an incubator for 2 h.”
Procedures: HL-60 cells were conventionally collected and plated in a 6-well plate at 4×10^5 cells/2 mL of 1640 complete medium per well. […] The next day, the treated and blank HL-60 cells were collected, centrifuged at 170×g for 5 min, resuspended and counted. Then the cells were analyzed for viability and washed once with PBS. […]

[6] = molecular target: T1, CD47 IgV TEV-His (human CD47 mature peptide of positions 19-141 of NP_942088.1, TEV, his tag fusion protein) (human, UniProt Q08722 19-141); experiment: indirect ELISA screening with CD47 IgV TEV-His as antigen
T1 construct: range 19-141; Synthesized by Akeso Biopharma; not shown: his tag
From the text: Spleen cells of immunized mice were fused with myeloma cells of the mice to prepare hybridoma cells.

[7] = molecular target: T2, CD47 IgV TEV-His / human SIRPαECD-hFc-Biotin (Homo sapiens, UniProt Q08722); experiment: Competitive ELISA against receptor SIRPα ECD-hFc-Biotin for binding to CD47
T2 construct: human CD47 mature peptide of positions 19-141 of GenbankID: NP 942088.1; His tag (C); host or cells: mammalian cell expression system (said in general terms, for CD47 only)
From the text: (§2) The antigen used for preparing the anti-CD47 antibody with the hybridoma cell line 6F7 was CD47 IgV TEV-His (including human CD47 mature peptide of positions 19-141 of GenbankID: NP 942088.1 and TEV (amino acid sequence: ENLYFQG, SEQ ID NO: 74)-his tag fusion protein, synthesized by Akeso Biopharma, Inc.) and 3T3-CD47 cells (NIH/3T3, manufacturer: ATCC, Cat. No: CRL-1658; the human CD47 mature peptide was transfected into the cells on the basis of NIH/3T3 to construct a cell line stably expressing 3T3-CD47). Spleen cells of immunized mice were fused with myeloma cells of the mice to prepare hybridoma cells. […] The hybridoma cells obtained by ELISA screening were screened by competitive ELISA to obtain a hybridoma cell line capable of secreting a monoclonal antibody capable of competing for binding to CD47 IgV TEV-His with the receptor human SIRPαECD-hFc-Biotin (SIRPαECD refers to the extracellular region of SIRPα, positions 31-373 of protein GenBank ACCESSION No. NP_542970.1; hFc refers to a human IgG Fc purification label, specifically to Ig gamma-1 chain C region, positions 114-330 of GenbankID: P01857), which was then subjected to dilution cloning to obtain a stable hybridoma cell line. The hybridoma cell line was designated hybridoma cell line LT012, and the monoclonal antibody secreted by the cell line was designated 6F7.

CD47 IgV TEV-His = molecular target: T3, CD47 IgV TEV-His (Homo sapiens, UniProt Q08722); experiment: Indirect ELISA screening for antibodies specifically binding CD47; settings: monoclonal antibody secreted by hybridoma LT012
T3 construct: human CD47 mature peptide of positions 19-141 of GenbankID: NP 942088.1; His tag (C); host or cells: mammalian cell expression system (said in general terms)
From the text: as §2

Molecule: rituximab: anti-human CD20 antibody (Roche) [reference compound]
phagocytic index (ADCP) [1]: significantly higher than those of the blank control and the isotype control (human IgG4)

Molecule: penpulimab: anti-PD-1 antibody; heavy chain SEQ ID NO: 82, light chain SEQ ID NO: 84 [reference compound]
secretion of IL-2 by PBMC cells [2]: can significantly stimulate the secretion of IL-2 | secretion of IFN-γ by PBMC cells [3]: can significantly stimulate the secretion of IFN-γ | secretion of IL-2 by PBMC cells [4]: can significantly stimulate the secretion of IL-2

Molecule: Nc1ncn([C@@H]2O[C@H](CO)[C@@H](O)[C@H]2O)c(=O)n1 [azacitidine]
phagocytic index (ADCP) [5]: significantly higher than those of the blank control and the isotype control (human IgG4)

binding result [6]: binds
B1: anti-CD47 monoclonal antibody 6F7 (secreted by hybridoma cell line LT012) (antibody, V domains shown)
VH: QVQLQQPGAELVRPGASVKLSCKASGYTFTSYWMNWVKQRPGQGLEWIGMIDPSDSETHNNQMFKDKATLTVDKSSNTAYMHLSSLTSEDSAVYHCARLYRWYFDVWGAGTTVTVSS
VL: NIVMTQSPKSMSMSLGERVTLSCKASEIVGTYVSWFQQKPHQSPKLLIYGASNRYTGVPDRFTGSGSATDFTLTISNVQAEDLADYHCGQSYNFPYTFGGGTKLEIK
notes: Murine hybridoma antibody; also called CD47-6F7; LT012 antibody

specific binding to CD47 (CD47 IgV TEV-His): capable of specifically binding to CD47
B2: 6F7: murine anti-CD47 monoclonal antibody secreted by hybridoma LT012; VH SEQ ID NO: 2, VL SEQ ID NO: 4 (antibody, V domains shown)
VH: QVQLQQPGAELVRPGASVKLSCKASGYTFTSYWMNWVKQRPGQGLEWIGMIDPSDSETHNNQMFKDKATLTVDKSSNTAYMHLSSLTSEDSAVYHCARLYRWYFDVWGAGTTVTVSS
VL: NIVMTQSPKSMSMSLGERVTLSCKASEIVGTYVSWFQQKPHQSPKLLIYGASNRYTGVPDRFTGSGSATDFTLTISNVQAEDLADYHCGQSYNFPYTFGGGTKLEIK
modifications: Synthetic artificial sequence-Amino acid sequence of the heavy chain variable region of 6F7; Synthetic artificial sequence-Amino acid sequence of the variable region of the light chain of 6F7
competition with SIRPα ECD-hFc-Biotin for binding to CD47 [7]: can compete with the receptor SIRPα ECD-hFc-Biotin for binding to CD47
